Results as given in ChEMBL document CHEMBL1157418, “Synthesis and antitumor activity evaluations of albumin-binding prodrugs of CC-1065 analog” (Bioorg Med Chem, 2008).
The source made the active and inactive calls. The rule behind the calls is not given here.

Experiments:
L1210 [1] = assay: Cell cycle arrest in mouse L1210 cells by increase in accumulation at S phase at 0.01-0.1 ug/mL after 24 hrs by flow cytometry; assay type: functional, cell-based
[2] = Antitumor activity in BALB/c mouse bearing JC cells assessed as tumor growth inhibition at 0.20 mg/kg, iv daily 4 times for 3 days; assay type: functional; conditions: 72 h, read-out: TGI
SK-OV-3 [3] = assay: Anticancer activity in CD1 mouse xenografted with human SKOV3 cells assessed as tumor growth inhibition at 0.13 mg/kg, iv; assay type: functional; conditions: read-out: TGI
MC-38 [4] = assay: Antitumor activity in BDF1 mouse bearing colon 38 cells assessed as tumor growth inhibition at 0.15 mg/kg, iv daily 4 times for 3 days; assay type: functional; conditions: MC-38, 72 h, read-out: TGI
L1210 [5] = assay: Cell cycle arrest in mouse L1210 cells by decrease in accumulation at G1 phase at 0.01-0.1 ug/mL after 24 hrs by flow cytometry; assay type: functional, cell-based
L1210 [6] = assay: Cell cycle arrest in mouse L1210 cells by accumulation at G2/M phase at 0.1 ug/ml after 24 hrs by flow cytometry; assay type: functional, cell-based
L1210 [7] = assay: Cell cycle arrest in mouse L1210 cells by increase in accumulation at S phase at 0.1 ug/mL after 12 hrs by flow cytometry; assay type: functional, cell-based
SK-OV-3 [8] = assay: Anticancer activity in CD1 mouse xenografted with human SKOV3 cells assessed as weight change at 0.13 mg/kg, iv; assay type: functional
[9] = Antitumor activity in BALB/c mouse bearing JC cells assessed as cell death at 0.16 mg/kg, iv daily 4 times for 3 days; assay type: functional
L1210 [10] = assay: Antitumor activity in BDF1 mouse bearing mouse L1210 cells assessed as increase of life span at 0.2 mg/kg, iv; assay type: functional
L1210 [11] = assay: Antitumor activity against mouse L1210 cells assessed as inhibition of [3H]thymidine uptake after 48 hrs; assay type: functional, cell-based
MC-38 [12] = assay: Antitumor activity in BDF1 mouse bearing colon 38 cells assessed as cell death at 0.3 mg/kg, iv daily 4 times for 2 days; assay type: functional
[13] = Antitumor activity in BALB/c mouse bearing JC cells assessed as maximum weight loss at 0.20 mg/kg, iv daily 4 times for 3 days; assay type: functional; conditions: dose 0.2 mg/kg
MC-38 [14] = assay: Antitumor activity in BDF1 mouse bearing colon 38 cells assessed as tumor growth inhibition at 0.3 mg/kg, iv daily 4 times for 2 days; assay type: functional; conditions: MC-38, 48 h, read-out: TGI
MC-38 [15] = assay: Antitumor activity in BDF1 mouse bearing colon 38 cells assessed as maximum weight loss at 0.15 mg/kg, iv daily 4 times for 3 days; assay type: functional
L1210 [16] = assay: Cell cycle arrest in mouse L1210 cells by increase in accumulation at S phase at 0.1 ug/mL after 3 hrs by flow cytometry relative to control; assay type: functional, cell-based
L1210 [17] = assay: Antitumor activity in BDF1 mouse bearing mouse L1210 cells assessed as increase of life span at 0.4 mg/kg, iv; assay type: functional
L1210 [18] = assay: Cell cycle arrest in mouse L1210 cells by accumulation at S phase at 0.1 ug/ml after 24 hrs by flow cytometry; assay type: functional, cell-based
[19] = Antitumor activity in BALB/c mouse bearing JC cells assessed as cell death at 0.25 mg/kg, iv daily 4 times for 2 days; assay type: functional
[20] = Antitumor activity in BALB/c mouse bearing JC cells assessed as maximum weight loss at 0.16 mg/kg, iv daily 4 times for 3 days; assay type: functional
[21] = Antitumor activity in BALB/c mouse bearing JC cells assessed as tumor growth inhibition at 0.16 mg/kg, iv daily 4 times for 3 days; assay type: functional; conditions: 72 h, read-out: TGI
SK-OV-3 [22] = assay: Antitumor activity against human SKOV3 cells assessed as inhibition of [3H]thymidine uptake after 72 hrs; assay type: functional, cell-based
[23] = Antitumor activity in BALB/c mouse bearing JC cells assessed as cell death at 0.20 mg/kg, iv daily 4 times for 3 days; assay type: functional; conditions: dose 0.2 mg/kg
MC-38 [24] = assay: Antitumor activity in BDF1 mouse bearing colon 38 cells assessed as cell death at 0.15 mg/kg, iv daily 4 times for 3 days; assay type: functional
L1210 [25] = assay: Antitumor activity in BDF1 mouse bearing mouse L1210 cells assessed as increase of life span at 0.05 mg/kg, iv; assay type: functional
[26] = Antitumor activity in BALB/c mouse bearing JC cells assessed as maximum weight loss at 0.25 mg/kg, iv daily 4 times for 2 days; assay type: functional
L1210 [27] = assay: Cell cycle arrest in mouse L1210 cells by increase in accumulation at G2/M phase at 0.01-0.1 ug/mL after 24 hrs by flow cytometry; assay type: functional, cell-based
L1210 [28] = assay: Antitumor activity in BDF1 mouse bearing mouse L1210 cells assessed as increase of life span at 0.1 mg/kg, iv; assay type: functional
MC-38 [29] = assay: Antitumor activity in BDF1 mouse bearing colon 38 cells assessed as maximum weight loss at 0.3 mg/kg, iv daily 4 times for 2 days; assay type: functional
[30] = Antitumor activity in BALB/c mouse bearing JC cells assessed as tumor growth inhibition at 0.25 mg/kg, iv daily 4 times for 2 days; assay type: functional; conditions: 48 h, read-out: TGI
L1210 [31] = assay: Antitumor activity against mouse L1210 cells; assay type: functional, cell-based
SK-OV-3 [32] = assay: Anticancer activity in CD1 mouse xenografted with human SKOV3 cells assessed as weight change at 25 mg/kg, ip; assay type: functional; conditions: route intraperitoneal
SK-OV-3 [33] = assay: Anticancer activity in CD1 mouse xenografted with human SKOV3 cells assessed as tumor growth inhibition at 25 mg/kg, ip; assay type: functional; conditions: SK-OV-3, ip, route intraperitoneal, read-out: TGI
MC-38 [34] = assay: Antitumor activity in BDF1 mouse bearing colon 38 cells assessed as cell death at 70 mg/kg, iv daily 4 times for 3 days; assay type: functional
MC-38 [35] = assay: Antitumor activity in BDF1 mouse bearing colon 38 cells assessed as maximum weight loss at 70 mg/kg, iv daily 4 times for 3 days; assay type: functional
MC-38 [36] = assay: Antitumor activity in BDF1 mouse bearing colon 38 cells assessed as tumor growth inhibition at 70 mg/kg, iv daily 4 times for 3 days; assay type: functional; conditions: MC-38, 72 h, read-out: TGI
MC-38 [37] = assay: Antitumor activity in BDF1 mouse bearing colon 38 cells assessed as cell death at 0.05 mg/kg, iv daily 4 times for 3 days; assay type: functional
MC-38 [38] = assay: Antitumor activity in BDF1 mouse bearing colon 38 cells assessed as tumor growth inhibition at 0.05 mg/kg, iv daily 4 times for 3 days; assay type: functional; conditions: MC-38, 72 h, read-out: TGI
MC-38 [39] = assay: Antitumor activity in BDF1 mouse bearing colon 38 cells assessed as maximum weight loss at 0.05 mg/kg, iv daily 4 times for 3 days; assay type: functional
MC-38 [40] = assay: Antitumor activity in BDF1 mouse bearing colon 38 cells assessed as tumor growth inhibition at 100 mg/kg, iv daily 4 times for 3 days; assay type: functional; conditions: MC-38, 72 h, read-out: TGI
MC-38 [41] = assay: Antitumor activity in BDF1 mouse bearing colon 38 cells assessed as cell death at 100 mg/kg, iv daily 4 times for 3 days; assay type: functional
MC-38 [42] = assay: Antitumor activity in BDF1 mouse bearing colon 38 cells assessed as maximum weight loss at 100 mg/kg, iv daily 4 times for 3 days; assay type: functional
[43] = Antitumor activity in BALB/c mouse bearing JC cells assessed as cell death at 8.0 mg/kg, iv daily 4 times for 3 days; assay type: functional
[44] = Antitumor activity in BALB/c mouse bearing JC cells assessed as tumor growth inhibition at 8.0 mg/kg, iv daily 4 times for 3 days; assay type: functional; conditions: 72 h, read-out: TGI
L1210 [45] = assay: Antitumor activity in BDF1 mouse bearing mouse L1210 cells assessed as increase of life span at 10 mg/kg, iv; assay type: functional
SK-OV-3 [46] = assay: Anticancer activity in CD1 mouse xenografted with human SKOV3 cells assessed as weight change at 5 mg/kg, iv; assay type: functional
SK-OV-3 [47] = assay: Anticancer activity in CD1 mouse xenografted with human SKOV3 cells assessed as tumor growth inhibition at 5 mg/kg, iv; assay type: functional; conditions: read-out: TGI
[48] = Antitumor activity in BALB/c mouse bearing JC cells assessed as maximum weight loss at 8.0 mg/kg, iv daily 4 times for 3 days; assay type: functional
L1210 [49] = assay: Cell cycle arrest in mouse L1210 cells by accumulation at G2/M phase at 1 ug/ml after 12 hrs by flow cytometry; assay type: functional, cell-based

For `O=C(CCCCCN1C(=O)C=CC1=O)Oc1cc2c(c3ccccc13)[C@H](CCl)CN2C(=O)c1cc2cc(NC(=O)c3cc4cc(F)ccc4[nH]3)ccc2[nH]1`, the Activity (L1210 [1]) was “Active”, the inhibition in vivo at 0.2 mg/kg [2] was 98% and the inhibition in vivo at 0.13 mg/kg (SK-OV-3 [3]) was 52%. The inhibition in vivo at 0.15 mg/kg (MC-38 [4]) was 99%, the Activity (L1210 [5]) was “Active” and the Activity (L1210 [6]) was “Active”. For the same compound, the Activity (L1210 [7]) was “Active”, the Activity (SK-OV-3 [8]) was -3% and the LCK [9] was 1.5. For the same compound, the Activity (L1210 [10]) was 107%, the IC50 (L1210 [11]) was 25 nM and the LCK (MC-38 [12]) was 2.6. For the same compound, the Activity [13] was -23%, the inhibition in vivo at 0.3 mg/kg (MC-38 [14]) was 99% and the Activity (MC-38 [15]) was -10%. For the same compound, the Activity (L1210 [16]) was “Active”, the Activity (L1210 [17]) was 133% and the Activity (L1210 [18]) was “Active”. It also gave an LCK [19] of 2, an Activity [20] of -19% and an inhibition in vivo at 0.16 mg/kg [21] of 93%. The IC50 (SK-OV-3 [22]) was 34 nM, the LCK [23] was 1.9 and the LCK (MC-38 [24]) was 2.3. For the same compound, the Activity (L1210 [25]) was 40%, the Activity [26] was -21% and the Activity (L1210 [27]) was “Active”. For the same compound, the Activity (L1210 [28]) was 51%, the Activity (MC-38 [29]) was -25% and the inhibition in vivo at 0.25 mg/kg [30] was 98%.
`CC/C=C\C/C=C\C/C=C\C/C=C\C/C=C\C/C=C\CCC(=O)O` [DOCONEXENT] showed an IC50 (L1210 [31]) of 13 nM.
For `CC(=O)O[C@H]1C(=O)[C@@]2(C)[C@H]([C@H](OC(=O)c3ccccc3)[C@]3(O)C[C@H](OC(=O)[C@H](O)[C@@H](NC(=O)c4ccccc4)c4ccccc4)C(C)=C1C3(C)C)[C@]1(OC(C)=O)CO[C@@H]1C[C@@H]2O` [PACLITAXEL], the Activity (SK-OV-3 [32]) was -1% and the inhibition in vivo at 25 mg/kg (SK-OV-3 [33]) was 22%.
In the case of `Cc1c[nH]c2c1[C@@]13C[C@@H]1CN(C(=O)c1cc4cc(NC(=O)c5cc6ccccc6o5)ccc4[nH]1)C3=CC2=O`, the Activity (L1210 [6]) is reported as “Active” and the Activity (L1210 [18]) is reported as “Active”.
Compound `O=c1[nH]cc(F)c(=O)[nH]1` [FLUOROURACIL] has an LCK (MC-38 [34]) of 1.1, an Activity (MC-38 [35]) of -7% and an inhibition in vivo at 70 mg/kg (MC-38 [36]) of 95%.
`CCCCCC(=O)O` [HEXANOATE] gave an IC50 (L1210 [31]) of 4.6 nM.
For `O=C(Nc1ccc2[nH]c(C(=O)N3C[C@@H](CCl)c4c3cc(O)c3ccccc43)cc2c1)c1cc2cc(F)ccc2[nH]1`, the LCK (MC-38 [37]) was 0.68, the Activity (L1210 [1]) was “Active” and the Activity (L1210 [5]) was “Active”. For the same compound, the Activity (L1210 [6]) was “Active”, the Activity (L1210 [7]) was “Active” and the inhibition in vivo at 0.05 mg/kg (MC-38 [38]) was 76%. The IC50 (L1210 [11]) was 0.17 nM, the Activity (MC-38 [39]) was -7% and the Activity (L1210 [16]) was “Active”. The Activity (L1210 [18]) was “Active”, the IC50 (L1210 [31]) was 0.29 nM and the IC50 (SK-OV-3 [22]) was 14 nM. The Activity (L1210 [27]) was “Active”.
For `CCc1c2c(nc3ccc(OC(=O)N4CCC(N5CCCCC5)CC4)cc13)C1CC3=C(COC(=O)[C@]3(O)CC)C(=O)N1C2` (stereo partly drawn), the inhibition in vivo at 100 mg/kg (MC-38 [40]) was 96%, the LCK (MC-38 [41]) was 1.7 and the Activity (MC-38 [42]) was -7%.
In the case of `COc1cccc2c1C(=O)c1c(O)c3c(c(O)c1C2=O)C[C@@](O)(C(=O)CO)C[C@@H]3O[C@H]1C[C@H](N)[C@H](O)[C@H](C)O1` [DOXORUBICIN], the LCK [43] is reported as 0.78, the inhibition in vivo at 8 mg/kg [44] is reported as 82% and the IC50 (L1210 [11]) is reported as 182 nM. For the same compound, the Activity (L1210 [45]) was 85%, the Activity (SK-OV-3 [46]) was -4% and the inhibition in vivo at 5 mg/kg (SK-OV-3 [47]) was 39%. For the same compound, the Activity [48] was -25% and the Activity (L1210 [49]) was “Active”.
